# From patent publication US20110166063A1 (priority 2008, published 2011)
# “And” between values parts separate entries of the source, which are not always exact repeats. Identical values can stand only once. Marks after values point to notes of the source that are not given here. Square brackets hold non-standard residues; d marks the D form. Ends that are not written are not given here. Peptide text beside a SMILES is read from it.
# Legend:
# [1] = Pharmacokinetic study of BNP conjugates, single IV dose in rats; format: in vivo, Sprague-Dawley rats; conditions: for Cmax: test article in plasma (non-releasable PEG-BNP or native BNP)
# Text: All animals were food fasted overnight.
# Following the last collection point, the animals were euthanized. […]
# [2] = molecular target: T1, GPR54 G-Protein coupled receptor (Homo sapiens, UniProt Q969F8); assay: FLIPR calcium flux agonist assay on GPR54; format: cell-based; conditions: no release incubation
# T1 construct: host or cells: Chem-1 host cells
# T1 sequence (Q969F8 whole entry): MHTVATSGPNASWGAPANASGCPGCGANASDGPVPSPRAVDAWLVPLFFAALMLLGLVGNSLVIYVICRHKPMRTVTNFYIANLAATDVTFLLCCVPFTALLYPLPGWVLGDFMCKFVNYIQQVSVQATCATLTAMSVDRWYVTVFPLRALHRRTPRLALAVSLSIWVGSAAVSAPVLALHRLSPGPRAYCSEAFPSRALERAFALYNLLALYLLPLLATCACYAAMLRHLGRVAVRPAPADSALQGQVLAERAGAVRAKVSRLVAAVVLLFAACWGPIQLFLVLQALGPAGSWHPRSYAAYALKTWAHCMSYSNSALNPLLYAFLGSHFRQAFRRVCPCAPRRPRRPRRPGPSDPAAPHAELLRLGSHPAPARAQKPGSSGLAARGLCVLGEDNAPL
# [3] = Pharmacokinetic study of protegrin conjugates, single IV dose in rats; format: in vivo, Sprague-Dawley rats
# Protocol: The weight range of the animals was 313-346 grams. All animals were food fasted overnight.
# Following the last collection point, the animals were euthanized. Bioanalytical analysis: analysis of the plasma samples was conducted using non-validated LC-MS/MS methods.
# [4] = Pharmacokinetic study of V681 (V13AD) conjugates, single IV dose in rats; format: in vivo, Sprague-Dawley rats; conditions: 1.0 mg/kg equivalent protein mass IV
# Text: The weight range of the animals was 311-346 grams. All animals were food fasted overnight. […] The predose sample was collected from the JVC.
# Following the last collection point, the animals were euthanized.
# [5] = test system: db/db diabetic mice; assay: Blood glucose levels in db/db diabetic mice after i.p. injection; format: in vivo
# Protocol: At different time points after dosing blood glucose levels were measured.
# PBS saline solution and Dextran equivalent dose were administrated as negative controls.
# [6] = rat, in vivo, protegrin-1 in plasma (released or native), 1.6 mg/kg equivalent protein mass IV
# [7] = test compound in plasma (non-releasable conjugates, native PG-1), […] equivalent protein mass IV, Mean ± SD
# [8] = protegrin-1 in plasma (released or native), […] equivalent protein mass IV
# [9] = 0.459 mg/kg equivalent protein mass IV, rats
# [10] = test article in plasma (non-releasable PEG-BNP), 0.459 mg/kg equivalent protein mass IV, rats
# [11] = BNP in plasma (released from conjugate or given as native), 0.459 mg/kg equivalent protein mass IV, rats
# [12] = intact C2-FMOC-PEG2-40K-BNP, IV bolus, rats
compound,measurement,setting,value
"CC[C@H](C)[C@@H]1NC(=O)[C@H](CCCNC(=N)N)NC(=O)[C@H](CC(=O)O)NC(=O)[C@H](CCSC)NC(=O)[C@H](CCCCN)NC(=O)[C@H](CCCNC(=N)N)NC(=O)CNC(=O)[C@H](Cc2ccccc2)NC(=O)[C@@H](NC(=O)CNC(=O)[C@H](CO)NC(=O)CNC(=O)[C@H](CCC(N)=O)NC(=O)[C@@H](NC(=O)[C@H](CCSC)NC(=O)[C@H](CCCCN)NC(=O)[C@@H]2CCCN2C(=O)[C@@H](N)CO)C(C)C)CSSC[C@@H](C(=O)N[C@@H](CCCCN)C(=O)N[C@H](C(=O)N[C@@H](CC(C)C)C(=O)N[C@@H](CCCN=C(N)N)C(=O)N[C@@H](CCCN=C(N)N)C(=O)N[C@@H](Cc2cnc[nH]2)C(=O)O)C(C)C)NC(=O)CNC(=O)[C@H](CC(C)C)NC(=O)CNC(=O)[C@H](CO)NC(=O)[C@H](CO)NC(=O)[C@H](CO)NC(=O)[C@H](CO)NC1=O [BNP, Brain Natriuretic Peptide (BNP-32), reference compound]",level at 0.03 h,"[1]; male, Sprague-Dawley, rat, plasma, 0.03 hr after IV BNP administration, all animals, read-out: plasma concentration at first time point",< 20 ng/mL
"CC(C)C[C@H](NC(=O)CNC(=O)[C@H](Cc1ccccc1)NC(=O)[C@H](CO)NC(=O)[C@H](CC(N)=O)NC(=O)[C@H](Cc1c[nH]c2ccccc12)NC(=O)[C@H](CC(N)=O)NC(=O)[C@@H](N)Cc1ccc(O)cc1)C(=O)N[C@@H](CCCNC(=N)N)C(=O)N[C@@H](Cc1ccccc1)C(N)=O [KP10, Kisspeptin-10]",EC50,[2]; agonist activation at GPR54,10 to 14 nM and 10 nM
same,Fold change compared to metastin,[2],1
"CC(C)C[C@H](NC(=O)CNC(=O)[C@H](Cc1ccccc1)NC(=O)[C@H](CO)NC(=O)[C@H](CC(N)=O)NC(=O)[C@H](Cc1c[nH]c2ccccc12)NC(=O)[C@H](CC(N)=O)NC(=O)[C@H](Cc1ccc(O)cc1)NC(=O)[C@H](CC(N)=O)NC(=O)[C@@H]1CCCN1C(=O)[C@@H](N)CC(C)C)C(=O)N[C@@H](CCCNC(=N)N)C(=O)N[C@@H](Cc1ccccc1)C(N)=O [KP13, Kisspeptin-13]",EC50,[2]; agonist activation at GPR54,11 nM
same,Fold change compared to metastin,[2],1
"CC(C)C[C@H](NC(=O)[C@H](CCCNC(=N)N)NC(=O)CNC(=O)CNC(=O)[C@@H](N)CCCNC(=N)N)C(=O)N[C@H]1CSSC[C@@H](C(=O)N[C@H](C(=O)NCC(=O)N[C@@H](CCCNC(=N)N)C(N)=O)C(C)C)NC(=O)[C@H](C(C)C)NC(=O)[C@@H]2CSSC[C@H](NC(=O)[C@H](Cc3ccc(O)cc3)NC1=O)C(=O)N[C@@H](CCCNC(=N)N)C(=O)N[C@@H](CCCNC(=N)N)C(=O)N[C@@H](CCCNC(=N)N)C(=O)N[C@@H](Cc1ccccc1)C(=O)N2 [Protegrin-1, reference compound]",AUC(0-inf),[3]; [6],1160 ± 351 ng·h/mL
same,Cmax,[3]; [6],2050 ± 601 ng/mL
same,MRT last,[3]; [6],31.2 ± 3 min
same,half-life,[3]; [6],21 min
same,Tmax,"[3]; rat, in vivo, protegrin-1 in plasma (released or native), 1.6 mg/kg equivalent protein mass IV, read-out: Tmax",1.8 min
same,clearance,"[3]; rat, in vivo, test compound in plasma (non-releasable conjugates, native PG-1), 1.6 mg/kg equivalent protein mass IV, Mean ± SD",24.5 mL/min/kg
same,Vd,"[3]; rat, in vivo, test compound in plasma (non-releasable conjugates, native PG-1), 1.6 mg/kg equivalent protein mass IV, Mean ± SD, read-out: Vss",0.848 ± 0.36 L/kg
"CC[C@H](C)[C@H](NC(=O)[C@H](C)NC(=O)[C@H](CCCCN)NC(=O)[C@H](CC(C)C)NC(=O)[C@H](C)NC(=O)[C@@H](NC(=O)[C@H](Cc1c[nH]cn1)NC(=O)[C@H](CC(C)C)NC(=O)[C@@H](NC(=O)[C@@H](NC(=O)[C@H](CCCCN)NC(=O)[C@@H](C)NC(=O)[C@H](C)NC(=O)[C@H](CO)NC(=O)[C@H](CCCCN)NC(=O)[C@H](Cc1ccccc1)NC(=O)[C@@H](NC(=O)[C@H](CCCCN)NC(=O)[C@H](CC(C)C)NC(=O)[C@H](Cc1ccccc1)NC(=O)[C@H](CO)NC(=O)[C@H](CCCCN)NC(=O)[C@H](Cc1c[nH]c2ccccc12)NC(=O)[C@H](CCCCN)NC(C)=O)[C@@H](C)O)[C@@H](C)O)C(C)C)[C@@H](C)O)C(=O)N[C@@H](CO)C(=O)N[C@@H](CO)C(N)=O [V681 (V13AD), V681(V13AD), reference compound] (Ac-KWKSFLKTFKSA[dA]KTVLHTALKAISS-NH2)",AUCINF,[4],7210 ± 1430 ng·h/mL
same,CL,[4],2.37 ± 0.433 mL/min/kg
same,Cmax,[4],16500 ± 9670 ng/mL
same,MRT,[4],19.8 ± 4.8 min
same,T1/2,[4],36.6 ± 23.4 min
same,Vss,[4],0.0477 ± 0.018 L/kg
"(PG-1)-(ALD)22K-(PG-1) (RGGRLCYCRRRFCVCVGR-NH2; cysteine pairing not given here; also: two peptide copies linked by PEG-dibutyraldehyde 2K; UniProt P32194 131-148, looked up) [PG-1-PEG-2K-PG-1, non-releasable di-peptide conjugate with bi-functional PEG-butyraldehyde-2K]",CL,[3]; [7],3.48 ± 0.455 mL/min/kg
same,T1/2,[3]; [7],438 ± 66 min
same,Vss,[3]; [7],0.432 ± 0.0405 L/kg
"ALD40K-PG-1 (RGGRLCYCRRRFCVCVGR-NH2; cysteine pairing not given here; also: mPEG2-butyraldehyde 40K conjugate; UniProt P32194 131-148, looked up) [mPEG2-40K-PG-1, non-releasable conjugate of protegrin-1 with mPEG2-butaraldehyde-40K]",CL,[3]; [7],0.548 ± 0.207 mL/min/kg
same,T1/2,[3]; [7],648 ± 180 min
same,Vss,[3]; [7],0.32 ± 0.131 L/kg
"GTSLSPPPESSGSPQQPGLSAPHSRQIPAPQGAVLVQREKDLPNYNWNSFGLRF-NH2 [KP54, Kisspeptin-54]",EC50,[2]; agonist activation at GPR54,190 nM
same,Fold change compared to metastin,[2],16
Insulin,"Blood glucose level, Mean","[5]; Ins 5 ug/mouse, time 0 hr, N = 5",510 mg/dL
same,"Blood glucose level, Mean","[5]; Ins 5 ug/mouse, time 1 hr, N = 5",265 mg/dL
same,"Blood glucose level, Mean","[5]; Ins 5 ug/mouse, time 2 hr, N = 5",352 mg/dL
same,"Blood glucose level, Mean","[5]; Ins 5 ug/mouse, time 4 hr, N = 5",587 mg/dL
same,"Blood glucose level, Mean","[5]; Ins 5 ug/mouse, time 8 hr, N = 5",538 mg/dL
same,"Blood glucose level, Mean","[5]; Ins 5 ug/mouse, time 24 hr, N = 5",538 mg/dL
same,"Blood glucose level, Mean","[5]; Ins 50 ug/mouse, time 0 hr, N = 5",445 mg/dL
same,"Blood glucose level, Mean","[5]; Ins 50 ug/mouse, time 1 hr, N = 5",210 mg/dL
same,"Blood glucose level, Mean","[5]; Ins 50 ug/mouse, time 2 hr, N = 5",150 mg/dL
same,"Blood glucose level, Mean","[5]; Ins 50 ug/mouse, time 4 hr, N = 5",550 mg/dL
same,"Blood glucose level, Mean","[5]; Ins 50 ug/mouse, time 8 hr, N = 5",558 mg/dL
same,"Blood glucose level, Mean","[5]; Ins 50 ug/mouse, time 24 hr, N = 5",541 mg/dL
"[mono]-[4,7-CG-PEG2-FMOC-NHS-40K]-[protegrin-1] (RGGRLCYCRRRFCVCVGR-NH2; cysteine pairing not given here; also: releasable CG-PEG2-FMOC 40K PEG, site not given here; UniProt P32194 131-148, looked up) [CG-PEG2-FMOC-40K-PG-1, releasable PEG conjugate of protegrin-1]",T1/2 (hr),[3]; [8],1.95* hr
same,Tmax,[3]; [8],1.8 min
[mono]-[mPEG2-Butyr-ALD-40K]-[BNP-32] [ButyrALD-40K-BNP],Cmax,[1]; [9],1410 ng/mL
same,AUCINF,[1]; [10],41300 ng·h/mL
same,CL,[1]; [10],0.185 mL/min/kg
same,MRTlast,[1]; [10],1440 min
same,T½,[1]; [10],1570 min
same,Vss,[1]; [10],0.631 L/kg
[mono]-[mPEG2-C2-fmoc-NHS-40K]-[BNP-32] [C2-FMOC-PEG2-40K-BNP],AUCINF,[1]; [11],162 ng·h/mL
same,MRTlast,[1]; [11],110 min
same,Tmax,"[1]; BNP in plasma (released from conjugate or given as native), 0.459 mg/kg equivalent protein mass IV, rats, 0.459 mg/kg",18 min and 19.8 min
same,time released BNP stayed above 20 ng/mL,[1]; following C2-FMOC-PEG2-40K-BNP IV dosing,8 h
same,Peak concentration of the conjugate in plasma,[1]; [12],1300 ng/mL
same,half-life of the conjugate in plasma,[1]; [12],900 min
same,time plasma conjugate concentrations remained above 100 ng/mL,[1]; [12],24 h
[mono]-[mPEG-Butyr-ALD-10K]-[BNP-32] [ButyrALD-10K-BNP],Cmax,[1]; [9],355 ng/mL
same,AUCINF,[1]; [10],96.6 ng·h/mL
same,CL,[1]; [10],79.17 mL/min/kg
same,MRTlast,[1]; [10],22.1 min
same,T½,[1]; [10],16.3 min
same,Vss,[1]; [10],2.27 L/kg
"[mono]-[mPEG-ButyrALD-30K]-[Kisspeptin-13] (LPNYNWNSFGLRF; also: mono-PEGylated with mPEG-ButyrALD 30K, site not given here; UniProt Q15726 109-121, looked up) [Ald30K-KP13]",EC50 (nM),[2]; agonist activation at GPR54,No activity
dextran-butyrALD-40K-insulin [Dex-Ins],"Blood glucose level, Mean","[5]; Dex-Ins 250 ug/mouse i.p., time 0 hr, N = 4",495 mg/dL
same,"Blood glucose level, Mean","[5]; Dex-Ins 250 ug/mouse i.p., time 1 hr, N = 4",263 mg/dL
same,"Blood glucose level, Mean","[5]; Dex-Ins 250 ug/mouse i.p., time 2 hr, N = 4",192 mg/dL
same,"Blood glucose level, Mean","[5]; Dex-Ins 250 ug/mouse i.p., time 4 hr, N = 4",462 mg/dL
same,"Blood glucose level, Mean","[5]; Dex-Ins 250 ug/mouse i.p., time 8 hr, N = 4",494 mg/dL
same,"Blood glucose level, Mean","[5]; Dex-Ins 250 ug/mouse i.p., time 24 hr, N = 4",517 mg/dL
same,decrease of db/db mice glucose levels,"[5]; at 1 hr and 2 hr after administration, 250 ug/mouse i.p.",40-60%
